Results as given in publication PMC8224802 (Pharmaceutics, 2021).
Where two headings read alike, the source gives them in different places.

Assays:
[1] = cited from earlier work
[2] = healthy subjects, cited from earlier work
[3] = Microsomal protein binding by rapid equilibrium dialysis (HLM); conditions: human, microsomes
Description: (§1) A 200 μL spiked samples and 400 μL PBS were placed into the “sample” and “buffer” chambers of the RED device, respectively. After 4-h incubation to equilibrate between the buffer and plasma compartments, the RED plate was sampled from both compartments. The samples were matrix-matched for analysis by addition of either diluted plasma or buffer; (a) blank diluted plasma added to the buffer samples and (b) blank buffer added to the diluted plasma sample, at a ratio of 50:50 v/v. The unbound fractions in microsomes and diluted plasma were determined by dividing the analyte/IS peak area ratios of the (a) sample by those of the (b) sample. The unbound fraction in diluted plasma (fu,d) was converted to the unbound fraction in undiluted plasma (fu) using a Kalvass equation as below (DF: dilution factor). (1) fu=1/DF/[(1/fu,d)−1]+1/DF

CYP3A4 = system: CYP3A4; design: method as in PMID 28232125; conditions: read-out: Ki of QCT for CYP3A4 activity; cited from earlier work
[4] = In vivo oral pharmacokinetic study of RPG without or with QCT in rats; design: species or system Sprague-Dawley rats; conditions: rats, oral QCT 100 mg/kg
Description: Rats were anesthetized via intramuscular injection of 10 mg/kg zoletil. The femoral vein and artery of the rats were cannulated using a polyethylene tube (BD Medical, Franklin Lakes, NJ, USA). […] The vehicle solutions for the intravenous and oral doses were composed of PEG 400 and aqueous 0.3% CMC solution (50:50 v/v).
For comparison, the extent of absolute oral bioavailability (F; expressed as percent of dose administered) was calculated by dividing the dose-normalized AUC after oral administration by the dose-normalized AUC after intravenous injection. The peak plasma concentration (Cmax) and time to reach Cmax (Tmax) were obtained directly from the measured experimental data.

[5] = system: in vitro metabolism of RPG in HLM; conditions: cited from earlier work
[6] = system: microsomal metabolism of RPG (repaglinide); test: In vitro inhibition of RPG metabolism by QCT in RLM; format: in vitro ADME, rat; conditions: rat, rat liver microsomes
Description: (§2) The intrinsic metabolic clearance (CLint) was calculated as Vmax/Km. […] The parameter α is indicative of the inhibition type. The mixed model is a general equation that includes competitive, uncompetitive, and noncompetitive inhibition as special cases. When α = 1, the mixed model is identical to a noncompetitive inhibition. When α is very large (α→∞) or very small (α→0), the mixed model becomes identical to competitive inhibition or uncompetitive inhibition, respectively.

[7] = system: microsomal metabolism of RPG in RLM; test: as above; format: in vitro ADME, rat
Description: as §2

[8] = Plasma protein binding by rapid equilibrium dialysis (human plasma); format: in vitro ADME; conditions: human, plasma (20-fold diluted); Table S3, in-house; species not printed (clinical prediction); read-out: fu,QCT
Description: as §1

[9] = design: method as in earlier work; conditions: Table S3, ref [1] of the supplement (Ganio et al., 2010); cited from earlier work
[10] = system: microsomal metabolism of RPG (repaglinide); test: In vitro inhibition of RPG metabolism by QCT in HLM; format: in vitro ADME, human; conditions: human, human liver microsomes
Description: as §2

[11] = system: microsomal metabolism of RPG in HLM; test: as above; format: in vitro ADME, human
Description: as §2

[12] = probe RPG (repaglinide), 1, 3, 10, 30 and 100 μM

## CCC(C)n1ncn(-c2ccc(N3CCN(c4ccc(OCC5COC(Cn6cncn6)(c6ccc(Cl)cc6Cl)O5)cc4)CC3)cc2)c1=O (stereo not shown) [itraconazole]
[1]
  Increase of systemic exposure to orally administered RPG by CYP3A4 inhibitors: 1.4 fold

## COc1cc(Cc2cnc(N)nc2N)cc(OC)c1OC [trimethoprim]
[1]
  Increase of systemic exposure to orally administered RPG by CYP2C8 inhibitors: 1.6–2 fold

## COC(=O)[C@H](c1ccccc1Cl)N1CCc2sccc2C1 [clopidogrel]
[1]
  Increase of systemic exposure to orally administered RPG by CYP2C8 inhibitors: 3.1–5.1 fold

## Cn1c(=O)c2c(ncn2C)n(C)c1=O [caffeine]
[2]; QCT 500 mg/day for 14 days
  Effect of oral QCT on systemic exposure (AUC and/or Cmax): significantly increased

## CC[C@H]1OC(=O)[C@H](C)C(=O)[C@H](C)[C@@H](O[C@@H]2O[C@H](C)C[C@H](N(C)C)[C@H]2O)[C@](C)(OC)C[C@@H](C)C(=O)[C@H](C)[C@H]2N(CCCCn3cnc(-c4cccnc4)c3)C(=O)O[C@]12C [telithromycin]
[1]
  Increase of systemic exposure to orally administered RPG by CYP3A4 inhibitors: 1.8 fold

## CN(CCOc1ccc(CC2SC(=O)NC2=O)cc1)c1ccccn1 (stereo not shown) [rosiglitazone]
[2]; QCT 500 mg/day for 21 days
  Effect of oral QCT on the pharmacokinetics of rosiglitazone: did not significantly change

## O=c1c(O)c(-c2ccc(O)c(O)c2)oc2cc(O)cc(O)c12 [QCT, Quercetin]
[3]
  fraction unbound at 4 h, 5 μM: 0.381
CYP3A4
  Ki: […]
[4]
  Classification of QCT as inhibitor of in vivo metabolism and systemic exposure of RPG: weak inhibitor
[5]; QCT 25 μM, RPG 0.2 μM
  Inhibition of in vitro metabolism of RPG: 58%
[5]; RPG 0.2 and 2 μM, QCT 25 μM
  Effect of QCT on metabolism of RPG in HLM: significantly inhibited
[5]; read-out: Ki for the inhibitory effect of QCT on in vitro metabolism of RPG
  Ki: 0.61 µM
[6]; probe RPG (repaglinide), 3 μM
  IC50 at 60 min: […]
[6]; [12]
  Ki at 60 min: 72 µM
[7]; RLM, Dixon plot and model fit
  Type of inhibition of RPG metabolism by QCT: mixed inhibition
[7]; rats (RLM)
  Inhibition potency of QCT on hepatic metabolism of RPG in vitro: weak
[8]
  fraction unbound at 4 h, 5 μM: 0.0462
[9]
  Imax,u (maximum unbound plasma concentration of QCT): […]
[10]; probe RPG (repaglinide), 3 μM, IC50 of QCT on the microsomal metabolism of RPG, HLM 0.5 mg/mL, 3 μM RPG
  IC50: 3 µM
[10]; [12]
  Ki: 24.2 µM
[10]; probe RPG (repaglinide), Table S3, S = 5 μM, read-out: Calculated Ki, (fu,mic,QCT × IC50) / (S / Km + 1)
  Ki: 0.534 µM
[11]; HLM, Dixon plot and model fit
  Type of inhibition of RPG metabolism by QCT: mixed inhibition
[11]; Table S3, source Figure 4, read-out: IC50 used for estimation of R
  IC50: 1.66 µM
[11]; humans (HLM)
  Inhibition potency of QCT on hepatic metabolism of RPG in vitro: moderate
[11]; read-out: IC50 of QCT on the microsomal metabolism of RPG, HLM 0.5 mg/mL, 3 μM RPG
  IC50: 3.03 ± 1.84 µM
